Assay results: PubChem BioAssay (NCI)
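Assay format: 96-well plates, 48-hour exposure. TGI is the concentration that stops growth completely.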

What was measured:
Assay in all cases: DTP human tumour cell line panel, 48 h
HOP-62 NSCLC = tested on: HOP-62 NSCLC
U251 CNS = tested on: U251 CNS
HT29 colon = tested on: HT29 colon
A549 NSCLC = tested on: A549 NSCLC
BT-549 breast = tested on: BT-549 breast
NCI-H522 lung = tested on: NCI-H522 lung
SR leukemia = tested on: SR leukemia
MDA-MB-231 breast = tested on: MDA-MB-231 breast
HCC-2998 colon = tested on: HCC-2998 colon
SK-MEL-5 melanoma = tested on: SK-MEL-5 melanoma

SMILES | TGI (HOP-62 NSCLC) [µM] | TGI (U251 CNS) [µM] | TGI (HT29 colon) [µM] | TGI (A549 NSCLC) [µM] | TGI (BT-549 breast) [µM] | TGI (NCI-H522 lung) [µM] | TGI (SR leukemia) [µM] | TGI (MDA-MB-231 breast) [µM] | TGI (HCC-2998 colon) [µM] | TGI (SK-MEL-5 melanoma) [µM]
Cc1c(-c2c(C)c3ccccc3n2S(=O)(=O)c2ccccc2)n(S(=O)(=O)c2ccccc2)c2ccccc12 | > 87.3 | > 100 | > 100 | > 100 | > 100 | > 100 | > 100 | > 100 | > 69 | > 94.1
COC(=O)c1cc(C)ccc1CC(Cc1cccc(C)c1)C(=O)OC (stereo not given) | > 100 | > 100 | > 100 | > 100 | > 100 | > 100 | > 100 | > 100 | > 100 | > 100
